The term IC50 denotes the midpoint of a concentration-inhibition curve. What is called melting point is the temperature, or range, at which the solid turns liquid.

We go through 15 compounds from patent US6642256B2, “Piperidine derivatives as subtype selective N-Methyl-D-Aspartate antagonists” (Warner-Lambert Company LLC, priority 2000, dated 2003).

Data set [1] concerns the target T1, NR1A/NR2B NMDA receptor subtype (Rattus norvegicus, UniProt P35439+Q00960).
T1 construct: buffy coat membrane fraction was prepared from frozen adult rat forebrains; tissue Zivic-Miller Laboratories, Inc; host or cells: adult rat forebrain membranes
The data set is described as follows: [3H]Ifenprodil binding assay (IFPNR), rat forebrain membranes. How it is done:
b. [^3H]Ifenprodil Binding Assay (IFPNR) Protocol:
Ifenprodil, [phenyl-^3H]-(specific activity, 66.2 Ci/mmol) was purchased from Dupont NEN Research Products (Boston, Mass.). Ifenprodil tartrate was purchased from Research Biochemicals International (Natick, Mass.). HEPES, glutamate and glycine were purchased from Sigma Chemical Co. (St. Louis, Mo.).
All buffers and reagents used in assay incubations or to dissolve drugs were prepared using water purified through a Milli-Q reverse osmosis system (Millipore Corp., Bedford, Mass.) and treated with UV emissions. Prior to use in the assays buffers were further filtered through a sterile Coming filtration unit (Coming Glass Works, Coming, N.Y.) containing a 0.2 micron filter. Buffer used to rinse the membranes on the assay filters was prepared with purified water, but was not refiltered and was stored no longer than 5 days. Stock solutions of the drugs (usually 10 mM) were dissolved in 20 mM HEPES-KOH buffer pH 7.4 (assay buffer) with the addition of 1 to 5 μL of glacial AcOH, if needed to keep them in solution. Eliprodil was used as the reference NMDA antagonist. A stock solution of eliprodil was prepared, and was buffered with the addition of 10% DMSO. All subsequent dilutions from the stock solution were made in buffer.
An extensively washed buffy coat membrane fraction was prepared from frozen adult rat forebrains (Zivic-Miller Laboratories, Inc., Zelienople, Pa.) as described by Coughenour L. L.; Cordon, J. J., J. Pharmacol. Exp. Ther., 1997;280:584-592, and stored at −80° C. On the day of the assay, pellets of the frozen membrane fractions were resuspended in 35 mL of assay buffer at pH 7.4 using a POLYTRON (Kinematica A. G. Company, Littau, Switzerland) mixer at setting 6. After incubation at 37° C. for 30 minutes in a shaking water bath, the homogenate was centrifuged 40,000×g for 10 minutes at 4° C. The pellets were resuspended in fresh buffer and centrifuged 3 more times before final suspension for use in the assay.
(iii) [^3H]Ifenprodil Binding protocol:
Triplicate incubations were carried out in a volume of 0.5 mL in 1.3 mL polypropylene tubes (Marsh Biomedical Products Inc, Rochester, N.Y.) for 2 hours at room temperature. Incubations contained invention compounds, membranes (100-200 μg protein) and 4 nM [^3H]-ifenprodil in 20 mM HEPES-KOH buffer, pH 7.4 (assay buffer). Assays were started by addition of the membranes. Bound radioligand was separated by filtration under reduced pressure using a TOMTEC Mach II, 96-well cell harvester (Tomtec Inc, Orange, Conn.). Filtration was through Whatman GF/B glass fiber filters (Whatman Ltd., Maidstone, England), which had been soaked for at least 15 minutes in 0.3% polyethylenimine and allowed to air dry. The filters were rinsed with 3 mL of ice cold assay buffer within 6 seconds. Air was allowed to pass through the filters for an additional 10 seconds to remove residual moisture. The filter mat was supported on a cold (−20° C.) TEFLON (E. I. Du Pont de Nemours and Company, Wilmington, Del.) coated support, and filters from individual wells were separated and placed in Mini Poly-Q vials (Becklman Instruments Inc, Fullerton, Calif.) and filled with 4 mL of scintillation cocktail (Beckman Ready Protein^+). Radioactivity retained on the filter was determined by liquid scintillation spectrophotometry. Nonspecific binding was defined as the binding in the presence of […] ifenprodil. Ninety percent of the total binding of ifenprodil was specific binding at the NR1A/NR2B NMDA receptor subtype active site (as opposed to binding at a remote site).
Binding curves were statistically analyzed for a best 1- or 2-site competition fit using GRAPHPAD PRISM software (GraphPad Software Inc, San Diego, Calif.), a computer program used to analyze and graph scientific data. The normalized data was fitted by nonweighted nonlinear regression to either [formula]
Control data was entered as 100%, and no parameters were constrained. […]

The test system of the next data set is Male Wistar albino rats. Nature of the data set: Formalin footpad test (FT). Type of data set: in vivo, rat. The note with it: PO, statistically significant decrease in late-phase pain behaviour versus vehicle. How it is done:
a. The Formalin Footpad Test (FT):
The FT model was used to test invention compounds for pain alleviating properties. The model produces a biphasic response in a test animal that results from a change in pain intensity over time. The FT model utilizes an injection of dilute formalin into the hindpaw of a rodent, which produces high intensity acute pain behaviors which are measured for the first 10 minutes post formalin injection (early phase responding). High intensity acute pain behaviors include rapid licking or biting of the injected hindpaw. The second phase is a prolonged period of lower intensity pain behaviors (late phase responding) which are measured from 11 to 45 minutes post-formalin injection.
Male Wistar albino rats (Harlan Sprague-Dawley Labs), weighing approximately 100 g at the time of testing, were used. Animals were group-housed and acclimated to the housing facility for 1 week prior to testing. Animals were maintained on a 12-hour/12-hour light/dark cycle and fed block rodent chow. From 4 to 8 animals were randomly assigned to either a vehicle-only dose group or a vehicle-plus invention compound treatment group on the day of testing.
The testing apparatus was a 16″×8″ box divided into two 8″×8″ testing chambers. Each testing chamber comprised a floor and 3 walls made of clear plastic mirrors, and a fourth wall which was clear plastic that allowed observation of animal behavior. The top of each chamber was covered with a metal screen during testing to prevent animals from climbing out of the chamber. Two animals were tested simultaneously in the adjoining boxes, but animals were unable to observe one another.
Animals were weighed and placed into holding cages (2 animals per cage) in the testing room prior to dosing. Following approximately 30 minutes of acclimation to the testing room, each pair of animals was administered orally (PO) by gavage a mixture of invention compound plus vehicle or vehicle alone. The treated animals were then placed in individual test chambers and allowed to acclimate to the chambers for at least 20 minutes. Then 50 μL of a 2.5% solution of formalin in vehicle was injected subcutaneously (SC) in the plantar surface of the left hindpaw from 30 to 120 minutes after administration of the invention compound. A session timer was started following the formalin injection, and the amount of time the animal spent licking or biting the injected paw was clocked with a hand-held stopwatch. The cumulative time spent engaging in a pain response was manually recorded at 5-minute intervals for 45 minutes post formalin injection. Early phase responding included Minutes 0 to 10, and late phase responding included Minutes 11 to 45. At the end of the testing period, animals were sacrificed using carbon dioxide. […]

Setting [2] is: Table 2, 4 nM [3H]-ifenprodil, read-out: IFPNR IC50 μm.
Setting [3] is: Table 3, 4 nM [3H]-ifenprodil, read-out: IFPNR IC50.
Setting [4] is: Table 4, 4 nM [3H]-ifenprodil, read-out: IFPNR IC50.

Read-outs that look alike come from different tables or passages of the source. Bounds are passed on as bounds.

T1 sequence (Q00960 27-1482, other chains not shown): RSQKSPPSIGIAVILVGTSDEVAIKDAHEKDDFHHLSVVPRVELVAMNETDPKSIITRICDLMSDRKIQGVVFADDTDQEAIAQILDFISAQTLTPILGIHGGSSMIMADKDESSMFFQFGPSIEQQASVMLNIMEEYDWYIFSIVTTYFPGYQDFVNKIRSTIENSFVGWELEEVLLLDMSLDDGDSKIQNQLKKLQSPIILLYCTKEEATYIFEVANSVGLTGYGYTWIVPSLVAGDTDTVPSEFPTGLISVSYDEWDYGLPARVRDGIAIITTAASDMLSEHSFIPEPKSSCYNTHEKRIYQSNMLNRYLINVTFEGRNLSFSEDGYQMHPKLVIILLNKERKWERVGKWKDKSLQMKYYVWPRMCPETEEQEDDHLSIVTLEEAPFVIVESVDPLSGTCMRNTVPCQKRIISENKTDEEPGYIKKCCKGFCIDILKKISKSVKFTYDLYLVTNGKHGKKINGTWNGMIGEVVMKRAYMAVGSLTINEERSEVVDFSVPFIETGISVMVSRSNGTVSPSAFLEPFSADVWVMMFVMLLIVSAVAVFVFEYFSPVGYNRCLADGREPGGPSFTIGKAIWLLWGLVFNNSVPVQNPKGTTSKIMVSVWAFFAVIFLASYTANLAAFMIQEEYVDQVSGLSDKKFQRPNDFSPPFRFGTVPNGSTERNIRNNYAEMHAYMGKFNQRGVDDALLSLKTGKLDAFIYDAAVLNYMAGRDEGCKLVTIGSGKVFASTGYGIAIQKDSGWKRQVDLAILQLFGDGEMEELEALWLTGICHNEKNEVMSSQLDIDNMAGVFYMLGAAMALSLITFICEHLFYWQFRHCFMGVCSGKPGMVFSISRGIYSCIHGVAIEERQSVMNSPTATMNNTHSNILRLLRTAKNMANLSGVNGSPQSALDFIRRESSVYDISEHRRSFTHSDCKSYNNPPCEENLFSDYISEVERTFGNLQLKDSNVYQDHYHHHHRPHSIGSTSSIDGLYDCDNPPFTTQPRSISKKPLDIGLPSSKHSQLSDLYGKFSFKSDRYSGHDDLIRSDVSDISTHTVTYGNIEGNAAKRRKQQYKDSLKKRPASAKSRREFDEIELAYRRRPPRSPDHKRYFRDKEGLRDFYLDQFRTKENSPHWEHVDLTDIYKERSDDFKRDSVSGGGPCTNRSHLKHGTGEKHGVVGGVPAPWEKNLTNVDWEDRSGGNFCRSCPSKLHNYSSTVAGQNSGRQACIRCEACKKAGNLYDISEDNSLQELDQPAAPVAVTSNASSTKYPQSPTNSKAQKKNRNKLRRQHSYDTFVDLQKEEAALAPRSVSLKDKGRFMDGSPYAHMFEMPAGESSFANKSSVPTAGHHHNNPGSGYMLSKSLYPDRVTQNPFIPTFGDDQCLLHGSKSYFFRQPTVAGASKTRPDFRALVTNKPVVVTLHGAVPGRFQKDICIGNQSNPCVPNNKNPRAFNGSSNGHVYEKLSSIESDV

`O=c1[nH]c2ccc(C3=NOC(CN4CCC(Cc5ccc(F)cc5)CC4)C3)cc2o1` (single isomer, unassigned; (+)) [Example 4a, (+)-6-{5-[4-(4-fluorobenzyl)piperidin-1-ylmethyl]-4,5-dihydroisoxazol-3-yl}-3H-benzoxazol-2-one]: the IC50 in data set [1] (Table 1, 4 nM [3H]-ifenprodil, read-out: IFPNR (IC50 μM)) was found to be 0.016 µM. Besides, in the data set on Male Wistar albino rats (Table 1), the “FT (mg/kg), active dose” value was less than 10 mg/kg.

As for `O=c1[nH]c2ccc(C3CC(CN4CCC(Cc5ccc(F)cc5)CC4)=NO3)cc2o1` (centres unmarked) [Example 5, 6-{3-[4-(4-Fluorobenzyl)piperidin-1-ylmethyl]-4,5-dihydroisoxazol-5-yl}-3H-benzoxazol-2-one], in data set [1] (setting [2]), the IC50 is 0.047 µM. Besides, the “FT (mg/kg), active dose” value with Male Wistar albino rats (Table 2) is on record as more than 30 mg/kg.

In the case of `O=c1[nH]c2ccc(-c3cc(CN4CCC(Cc5ccc(F)cc5)CC4)on3)cc2o1` [Example 15, 6-{5-[4-(4-Fluorobenzyl)piperidin-1-ylmethyl]isoxazol-3-yl}-3H-benzoxazol-2-one], the melting point was in the range of 237 to 244 °C. Also, the IC50 in data set [1] (setting [2]) turned out to be 0.499 µM.

`O=C(C1CC(c2ccc3[nH]c(=O)oc3c2)=NO1)N1CCC(Cc2ccc(F)cc2)CC1` (centres unmarked) [Example 18, 6-{5-[4-(4-Fluorobenzyl)piperidine-1-carbonyl]-4,5-dihydroisoxazol-3-yl}-3H-benzoxazol-2-one] returned a melting point of 210 to 213 °C. Moreover, in data set [1] (setting [3]), the IC50 was more than 1 µM.

On to `CC1(CN2CCC(Cc3ccc(F)cc3)CC2)CC(c2ccc3[nH]c(=O)oc3c2)=NO1` (centres unmarked) [Example 21, 6-{5-[4-(4-Fluorobenzyl)piperidin-1-ylmethyl]-5-methyl-4,5-dihydroisoxazol-3-yl}-3H-benzoxazol-2-one], for which the melting point was in the range of 82 to 86 °C. In data set [1] (setting [2]), the IC50 came to 0.011 µM.

With `O=C(O)C1(CN2CCC(Cc3ccc(F)cc3)CC2)CC(c2ccc3[nH]c(=O)oc3c2)=NO1` (centres unmarked) [Example 22, 5-[4-(4-Fluorobenzyl)piperidin-1-ylmethyl]-3-(2-oxo-2,3-dihydrobenzoxazol-6-yl)-4,5-dihydroisoxazole-5-carboxylic acid], the melting point was 188 to 194 °C. Moreover, in data set [1] (setting [2]), the IC50 worked out at 0.788 µM.

Consider `CCOC(=O)C1(Cc2ccc(F)cc2)CCN(CC2CC(c3ccc4[nH]c(=O)oc4c3)=NO2)CC1` (centres unmarked) [Example 24, 4-(4-Fluorobenzyl)-1-[3-(2-oxo-2,3-dihydrobenzoxazol-6-yl)-4,5-dihydroisoxazol-5-ylmethyl]piperidine-4-carboxylic acid ethyl ester], for which the melting point was in the range of 212 to 214 °C.

For the compound `O=c1[nH]c2ccc(C3=NOC(CN4CCC(Oc5ccc(F)cc5)CC4)C3)cc2o1` (centres unmarked) [Example 27, 6-{5-[4-(4-Fluorophenoxy)piperidin-1-ylmethyl]-4,5-dihydroisoxazol-3-yl}-3-H-benzoxazol-2-one], the melting point lay in the range of 192 to 194 °C. The IC50 in data set [1] (setting [4]) amounted to 0.059 µM.

Compound `O=c1[nH]c2ccc(C3=NOC(CN4CCC(Sc5ccc(F)cc5)CC4)C3)cc2o1` (centres unmarked) [Example 28, 6-{5-[4-(4-Fluorophenylsulfanyl)piperidin-1-ylmethyl]-4,5-dihydroisoxazol-3-yl}-3H-benzoxazol-2-one] registered a melting point of 190 to 192 °C. The IC50 in data set [1] (setting [4]) turned out to be 0.018 µM.

`O=C(c1ccc(F)cc1)C1CCN(CC2CC(c3ccc4[nH]c(=O)oc4c3)=NO2)CC1` (centres unmarked) [Example 30, 6-{5-[4-(4-Fluorobenzoyl)piperidin-1-ylmethyl]-4,5-dihydroisoxazol-3-yl}-3H-benzoxazol-2-one] gave a melting point of 188 to 190 °C. In data set [1] (setting [4]), the IC50 worked out at 0.759 µM.

For `CC(O)(c1ccc(F)cc1)C1CCN(CC2CC(c3ccc4[nH]c(=O)oc4c3)=NO2)CC1` (centres unmarked) [Example 32, 6-(5-{4-[1-(4-Fluorophenyl)-1-hydroxyethyl]piperidin-1-ylmethyl}-4,5-dihydroisoxazol-3-yl)-3H-benzoxazol-2-one], the melting point was in the range of 125 to 134 °C. Besides, the IC50 in data set [1] (setting [4]) was more than 1 µM.

`Cc1c(C2=NOC(CN3CCC(Cc4ccc(F)cc4)CC3)C2)cc2oc(=O)[nH]c2c1Cl` (centres unmarked) [Example 33, 4-Chloro-6-{5-[4-(4-fluorobenzyl)piperidin-1-ylmethyl]-4,5-dihydroisoxazol-3-yl}-5-methyl-3H-benzoxazol-2-one] registered a melting point of 131 to 132 °C. In data set [1] (Table 5, 4 nM [3H]-ifenprodil, read-out: IFPNR IC50), the IC50 turned out to be 0.014 µM.

As to `O=c1[nH]c2ccc(C3=NOC(CN4CCC(c5ccc(F)cc5)CC4)C3)cc2o1` (centres unmarked) [Example 34, -{5-[4-(4-Fluorophenyl)piperidin-1-ylmethyl]-4,5-dihydroisoxazol-3-yl}-3H-benzoxazol-2-one], the melting point fell in the range of 214 to 217 °C. Also, in data set [1] (setting [3]), the IC50 turned out to be 0.28 µM.

Turning to `O=c1[nH]c2ccc(C3=NOC(CN4CCC(O)(c5ccccc5)CC4)C3)cc2o1` (centres unmarked) [Example 35], the melting point was in the range of 115 to 118 °C. Besides, the IC50 in data set [1] (setting [3]) is more than 1 µM.

In the case of `O=c1[nH]c2ccc(C3=NOC(CCN4CCC(c5ccc(F)cc5)CC4)C3)cc2o1` (centres unmarked) [Example 36, 6-(5-{2-[4-(4-Fluorophenyl)piperidin-1-yl]ethyl}-4,5-dihydroisoxazol-3-yl)-3H-benzoxazol-2-one], the melting point was 188 to 194 °C. Besides, the IC50 in data set [1] (setting [3]) is more than 1 µM.
